The target in one assay is T1, Recombinant IKKβ (Homo sapiens, UniProt O14920).
T1 construct: purchased Millipore, Dundee, UK
T1 sequence (O14920 1-756): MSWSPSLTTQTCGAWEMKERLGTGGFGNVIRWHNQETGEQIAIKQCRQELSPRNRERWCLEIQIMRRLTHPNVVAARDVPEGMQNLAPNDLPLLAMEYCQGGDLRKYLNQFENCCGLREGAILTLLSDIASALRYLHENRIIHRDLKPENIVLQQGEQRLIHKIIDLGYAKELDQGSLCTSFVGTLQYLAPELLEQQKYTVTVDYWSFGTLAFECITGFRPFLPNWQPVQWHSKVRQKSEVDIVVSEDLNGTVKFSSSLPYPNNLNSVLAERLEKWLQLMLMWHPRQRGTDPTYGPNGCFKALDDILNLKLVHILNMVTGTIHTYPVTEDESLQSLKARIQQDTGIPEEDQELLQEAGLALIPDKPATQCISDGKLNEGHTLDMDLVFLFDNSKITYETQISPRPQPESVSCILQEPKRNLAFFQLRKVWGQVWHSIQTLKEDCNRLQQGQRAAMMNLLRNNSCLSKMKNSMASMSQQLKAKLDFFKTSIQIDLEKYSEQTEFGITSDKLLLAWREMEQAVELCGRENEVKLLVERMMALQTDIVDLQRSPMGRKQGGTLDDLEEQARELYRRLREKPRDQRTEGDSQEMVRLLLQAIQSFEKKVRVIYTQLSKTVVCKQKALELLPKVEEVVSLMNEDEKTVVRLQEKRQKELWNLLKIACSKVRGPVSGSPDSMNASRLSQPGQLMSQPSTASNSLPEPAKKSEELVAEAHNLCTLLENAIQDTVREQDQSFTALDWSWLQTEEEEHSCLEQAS
Description: DELFIA IKKβ kinase assay (apparent Ki, Cheng-Prusoff). In kind it is biochemical. As to conditions: DELFIA assay (first line of an example). A digest of the protocol:
(§1)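 Recombinant IKKα or IKKβ (37 nM) with 0.375 μM biotinylated IκB-α (Ser32) peptide and 40 μM ATP in 40 mM Tris-HCl pH 7.5, 20 mM MgCl2, 60 min at 30° C. Phospho-substrate captured on streptavidin and detected by anti-phospho-IκB-α plus europium anti-mouse IgG time-resolved fluorescence; apparent Ki via Cheng-Prusoff.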

In the next assay the target is T2, Recombinant IKKα (Homo sapiens, UniProt O15111).
T2 construct: purchased Millipore, Dundee, UK
T2 sequence (O15111 1-745): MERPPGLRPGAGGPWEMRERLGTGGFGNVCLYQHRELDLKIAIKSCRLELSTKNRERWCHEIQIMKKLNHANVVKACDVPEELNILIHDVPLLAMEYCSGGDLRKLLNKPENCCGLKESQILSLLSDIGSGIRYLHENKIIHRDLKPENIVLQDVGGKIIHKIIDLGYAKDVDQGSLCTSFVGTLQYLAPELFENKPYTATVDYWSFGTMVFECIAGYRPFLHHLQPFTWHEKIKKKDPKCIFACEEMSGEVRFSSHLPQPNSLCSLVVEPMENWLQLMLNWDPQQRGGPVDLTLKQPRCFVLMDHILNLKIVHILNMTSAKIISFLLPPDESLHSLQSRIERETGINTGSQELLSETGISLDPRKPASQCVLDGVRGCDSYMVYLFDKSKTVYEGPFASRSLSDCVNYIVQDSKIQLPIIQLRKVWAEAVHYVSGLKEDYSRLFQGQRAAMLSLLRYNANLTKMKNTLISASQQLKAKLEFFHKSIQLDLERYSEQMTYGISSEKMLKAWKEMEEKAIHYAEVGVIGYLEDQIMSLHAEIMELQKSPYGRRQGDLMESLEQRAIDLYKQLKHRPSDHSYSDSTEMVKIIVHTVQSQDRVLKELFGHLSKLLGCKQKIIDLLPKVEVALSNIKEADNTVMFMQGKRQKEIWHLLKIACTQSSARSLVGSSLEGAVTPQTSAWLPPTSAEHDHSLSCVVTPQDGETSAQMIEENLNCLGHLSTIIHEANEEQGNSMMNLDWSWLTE
In words: DELFIA IKKα kinase assay (apparent Ki, Cheng-Prusoff). In kind it is biochemical. Conditions: DELFIA assay (first line of an example). A digest of the protocol:
as §1

In patent publication US20250304576A1 (Cancer Research Technology Limited, priority 2022, published 2025) one finds Ki data, which are given here for 4 compounds.

Turning to `Nc1n[nH]c2ccc(-c3ccnc4[nH]c(CCN5CCOCC5)cc34)cc12` [Example 268, 5-(2-(2-Morpholinoethyl)-1H-pyrrolo[2,3-b]pyridin-4-yl)-1H-indazol-3-amine], the Ki worked out at 0.251 µM on Recombinant IKKβ and 0.011 µM on Recombinant IKKα.

Take `Nc1n[nH]c2ccc(-c3ccnc4[nH]c(CCCN5CCCCC5)cc34)cc12` [Example 269, 5-(2-(3-(Piperidin-1-yl)propyl)-1H-pyrrolo[2,3-b]pyridin-4-yl)-1H-indazol-3-amine]: the Ki at Recombinant IKKβ stood at 0.507 µM; at Recombinant IKKα, 0.011 µM.

In the case of `Nc1n[nH]c2ccc(-c3ccnc4[nH]c(CCCN5CCOCC5)cc34)cc12` [Example 271, 5-(2-(3-Morpholinopropyl)-1H-pyrrolo[2,3-b]pyridin-4-yl)-1H-indazlo-3-amine], the Ki was 0.126 µM on Recombinant IKKβ and 0.011 µM at Recombinant IKKα.

As to `Nc1n[nH]c2ccc(-c3ccnc4[nH]c(CC5CCNCC5)cc34)cc12` [Example 272, 5-(2-(Piperidin-4-ylmethyl)-1H-pyrrolo[2,3-b]pyridin-4-yl)-1H-indazol-3-amine], the Ki at Recombinant IKKβ came to 0.05 µM; on Recombinant IKKα, 0.005 µM.
